From patent US20080312164A1 (priority 2006, published 2008)
Where two headings read alike, the source gives them in different places. Marks after values point to notes of the source that are not given here.

Key:
[1] = tested on: several cell lines; conditions: reported; cited from earlier work
[2] = tested on: HCT-116 cells; conditions: literature (27, 35); cited from earlier work
[3] = tested on: HCT-116 cells; assay: Cell Titer-Glo cytotoxicity assay, HCT-116; assay type: cell-based; conditions: Homo sapiens; HCT-116, Cell Titer-Glo, 72 h; read-out: IC50
Description: (§1) Five serial 1:2 dilutions were made with anhydrous DMSO at 100× the final concentration used in the assay.

[4] = tested on: HT-29 cells; assay: MTT cytotoxicity assay, HT-29; assay type: cell-based; conditions: Homo sapiens; HT-29, MTT, 24 h; read-out: IC50
Description: The IC50 value for each library member represents at least twelve replicates of dose-response experiments conducted over five concentrations. […] In this assay, live cells were distinguished by the intracellular enzymatic activity that converts the cell-permeable molecule MTT to strongly colored formazan crystals, which are retained within live cells and absorb light at 570 nm.
MTT Cytotoxicity Assay. HT-29 cell lines were maintained in RPMI medium 1640 supplemented with 10% (wt/vol) FBS and 1% penicillin-streptomycin (PS) (100 units/mL and 100 μg/mL). Cells were harvested by trypsinization using 0.25% trypsin and 0.1% EDTA and plated at a density of 2,000-5,000 cells per well of each 96-well microtiter plate. Cells were grown for 24 h at 37° C., with 5% CO2/95% air in a humidified incubator to allow cell attachment to occur before compound addition. Library members were stored at −20° C. under desiccating conditions before the assay. Library member stocks (1000×) were prepared in falcon tubes (BD Biosciences). Five dilutions were made with DMSO at 1000× the final concentration used in the assay. The 1000× stocks (3 μL) were diluted with complete culture medium (3 mL). Each plate contained twelve replicates of cells treated with 0.1% DMSO in complete cell culture medium that served as an individual negative control. Library member stocks (1×, 200 μL) were added to aspirated cells and replicated twelve times on each plate. Cells were incubated with the library members for 24 h before optical density reading. Test plates were removed from the incubator and washed once in sterile PBS to remove serum containing library members. Freshly-made 10×MTT solution in sterile PBS (5 mg/mL) was diluted 1:10 in serum-free culture medium and was sterilized using a 0.2 μm filter. Diluted MTT solution (1×, 50 μL) was added to each well and the plates were incubated in the dark for 2 h. Test plates were centrifuged at 1800×g for 5 min at 4° C. using a Beckman GPR centrifuge. MTT solution was removed by aspiration and 100 μL DMSO was added to each well to lyse cells and solubilize formazan crystals. Test plates were incubated in the dark at room temperature for 10 min. Plates were read for optical density at 570 nm.
IC50 Calculations. For each library member, at least three dose-response experiments were conducted on separate plates. […] To calculate IC50, percent inhibitions were plotted as a function of log[concentration] and then fit to a four-parameter logistic model that allowed for a variable Hill slope by using XLFIT 4.1 (ID Business Solutions, Emeryville, Calif.).

[5] = tested on: Hep3B cells; assay: Cell Titer-Glo cytotoxicity assay, Hep3B; assay type: cell-based; conditions: Homo sapiens, Cell Titer-Glo, 72 h, read-out: IC50
Description: as §1

[6] = tested on: NCI-H460 cells; assay: Cell Titer-Glo cytotoxicity assay, NCI-H460; assay type: cell-based, human; conditions: Homo sapiens; NCI-H460, Cell Titer-Glo, 72 h; read-out: IC50
Description: as §1

[7] = tested on: Du145 cells; assay: Calcein AM cytotoxicity assay, Du145; assay type: cell-based; conditions: Homo sapiens, DU-145; Du145, Calcein AM, 72 h; read-out: IC50
Description: as §1

[8] = tested on: Hep3B cells; assay: Calcein AM cytotoxicity assay, Hep3B; assay type: cell-based; conditions: Homo sapiens, Calcein AM, 72 h, read-out: IC50
Description: as §1

[9] = tested on: NmuMG mouse mammary normal epithelial cells; assay: Cell Titer-Glo cytotoxicity assay, NmuMG; assay type: cell-based; conditions: Mus musculus, Epithelial cell; NmuMG, Cell Titer-Glo, 72 h; read-out: IC50
Description: as §1

[10] = tested on: NCI/ADR RES cells; assay: Calcein AM cytotoxicity assay, NCI/ADR-RES; assay type: cell-based; conditions: Homo sapiens, Calcein AM, 72 h, read-out: IC50
Description: as §1

[11] = tested on: MCF7 cells; assay: Cell Titer-Glo cytotoxicity assay, MCF7; assay type: cell-based, human; conditions: Homo sapiens; MCF7, Cell Titer-Glo, 72 h; read-out: IC50
Description: as §1

[12] = tested on: NmuMG mouse mammary normal epithelial cells; assay: Calcein AM cytotoxicity assay, NmuMG; assay type: cell-based; conditions: Epithelial cell, NmuMG, Calcein AM, 72 h, read-out: IC50
Description: as §1

[13] = tested on: SK-OV-3 cells; assay: Cell Titer-Glo cytotoxicity assay, SK-OV-3; assay type: cell-based; conditions: Homo sapiens; SK-OV-3, Cell Titer-Glo, 72 h; read-out: IC50
Description: as §1

[14] = tested on: Du145 cells; assay: Cell Titer-Glo cytotoxicity assay, Du145; assay type: cell-based; conditions: Homo sapiens, DU-145; Du145, Cell Titer-Glo, 72 h; read-out: IC50
Description: as §1

[15] = tested on: NCI/ADR RES cells; assay: Cell Titer-Glo cytotoxicity assay, NCI/ADR-RES; assay type: cell-based, human; conditions: Homo sapiens; NCI/ADR-RES, Cell Titer-Glo, 72 h; read-out: IC50
Description: as §1

[16] = tested on: HCT-116 cells; assay: Calcein AM cytotoxicity assay, HCT-116; assay type: cell-based; conditions: Homo sapiens; HCT-116, Calcein AM, 72 h; read-out: IC50
Description: as §1

[17] = tested on: NCI-H460 cells; assay: Calcein AM cytotoxicity assay, NCI-H460; assay type: cell-based; conditions: Homo sapiens; NCI-H460, Calcein AM, 72 h; read-out: IC50
Description: as §1

[18] = tested on: human cancer cell lines; assay: Cytotoxicity across the panel of human cancer cell lines (average, high-throughput assays); assay type: cell-based; conditions: average across eight human cancer cell lines, MTT (HT-29) values excluded; for IC50: read-out: Cancerous Average IC50 / Average IC50 in Cancer Cell Lines
Description: as §1

[19] = tested on: MCF7 cells; assay: Calcein AM cytotoxicity assay, MCF7; assay type: cell-based; conditions: Homo sapiens; MCF7, Calcein AM, 72 h; read-out: IC50
Description: as §1

[20] = tested on: SF-268 cells; assay: Calcein AM cytotoxicity assay, SF-268; assay type: cell-based; conditions: Homo sapiens; SF-268, Calcein AM, 72 h; read-out: IC50
Description: as §1

[21] = tested on: SK-OV-3 cells; assay: Calcein AM cytotoxicity assay, SK-OV-3; assay type: cell-based; conditions: Homo sapiens; SK-OV-3, Calcein AM, 72 h; read-out: IC50
Description: as §1

[22] = tested on: NmuMG Cell Line; assay: Cytotoxicity in NmuMG cell line, summary table (assay not stated); assay type: cell-based; conditions: Mus musculus, assay not stated (mostly Cell Titer-Glo values; Calcein AM values for 20, 24, 39)
Description: as §1

[23] = tested on: SF-268 cells; assay: Cell Titer-Glo cytotoxicity assay, SF-268; assay type: cell-based; conditions: Homo sapiens; SF-268, Cell Titer-Glo, 72 h; read-out: IC50
Description: as §1

SMILES	IC50 [3] [µM]	IC50 [4] [µM]	IC50 [5] [µM]	IC50 [6] [µM]	IC50 [7] [µM]	IC50 [8] [µM]	IC50 [9] [µM]	IC50 [10] [µM]	IC50 [11] [µM]	IC50 [12] [µM]	IC50 [13] [µM]	IC50 [14] [µM]	IC50 [15] [µM]	IC50 [16] [µM]	IC50 [17] [µM]	IC50 [18] [µM]	IC50 [19] [µM]	IC50 [20] [µM]	IC50 [21] [µM]	IC50 [22] [µM]	further results
O=C(CCCCCCC(=O)Nc1cccnc1)NO [Compound 7, pyroxamide]	–	–	–	–	–	–	–	–	–	–	–	–	–	–	–	–	–	–	–	–	IC50 [1]: 1 to 20 µM; IC50 [2]: 6.5 ± 0.5 µM
S=C=NC1CC1 [Compound 17, isothiocyanatocyclopropane]	> 50	> 50	> 30	> 50	29.7	> 30	> 200	> 50	12.6	> 200	> 50	> 50	> 50	> 50	> 50	> 50	15.1	> 50	> 30	> 200	Cancerous Average IC50 / Average IC50 in Cancer Cell Lines [18]: >50.00^c μM; IC50 [23]: > 50 µM
Cc1c(N=C=S)c(=O)n(-c2ccccc2)n1C [Compound 37, 4-isothiocyanato-2,3-dimethyl-1-phenyl-1,2-dihydropyrazol-5-one]	> 50	> 50	> 50	> 50	> 50	> 50	> 200	> 50	> 50	> 200	> 50	> 50	> 50	> 50	> 50	> 50	> 50	> 50	> 50	> 200	IC50 [23]: > 50 µM
